Measurements published in EP3553061A1, “NEW INHIBITORS OF BONE RESORPTION” (CENTRE NATIONAL DE LA RECHERCHE SCIENTIFIQUE (CNRS), priority 2018, dated 2019).
Where “and” joins values, the source holds several entries; their conditions need not be identical. Equal values may be shown once. Read-outs that look alike come from different tables or passages of the source.

How the values were obtained:
[1] = target: T1, DHR2 exchange domain of Dock5 (Homo sapiens, UniProt Q9H7D0); assay: In vitro Rac1 nucleotide exchange (mantGDP fluorescence) with purified recombinant proteins, Dock5; assay type: biochemical; conditions: inhibitor 20 and 60 µM
T1 construct: catalyzed by the DHR2 exchange domain of Dock5 or by the Dbl exchange domain of TRIO; made in house; host or cells: E. coli
Method: (§1) The effect of the molecules has been tested on the nucleotide exchange reaction by the GTPase Rac1 catalyzed by the DHR2 exchange domain of Dock5 or by the Dbl exchange domain of TRIO, using purified recombinant proteins produced in E. coli bacteria (Vives, Cres et al., 2015).
(§2) The activity of the inhibitors is measured by fluorescence spectroscopy on 96-well plates with a FlexStation 3 fluorimeter, in a reaction volume of 150 µL, without stirring, at a temperature of 26 ° C. Each plate contains 4 inhibitors at two concentrations (20 and 60 µM), 2 GEFs (DOCK5 and TRIO) and includes controls without inhibitor (1% final DMSO). The inhibitors are diluted to DMSO at an intermediate concentration of 2 or 6 mM, ie 1% final DMSO. Rac1-mantGDP (2 µM), DOCK5 or TRIO (0,2 µM) and the inhibitors are mixed immediately before the beginning of measurements. The exchange reaction is triggered by series of 8 wells in parallel by addition of 100 µM of GTP with mixing by pipetting (Flex mode). The kinetics is followed during 800 seconds. All the measurements are made in duplicate on the same plate. The total playing time of a plate is about 80 minutes. The kinetics of exchange are analyzed with a mono-exponential model F = F0 + ΔFe - kt with the KaleidaGraph ™ software, where F0 is the initial fluorescence and k (or kobs) is the exchange rate constant.

[2] = target: T2, Dbl exchange domain of TRIO (Homo sapiens, UniProt O75962); assay: In vitro Rac1 nucleotide exchange (mantGDP fluorescence) with purified recombinant proteins, TRIO; assay type: biochemical; conditions: inhibitor 20 and 60 µM
T2 construct: catalyzed by the DHR2 exchange domain of Dock5 or by the Dbl exchange domain of TRIO; made in house; host or cells: E. coli
Method: as §1, §2

[3] = target: T3, human Dock5 (Homo sapiens, UniProt Q9H7D0); assay: Pull down assay of Rac activation by human Dock5 DHR2 in transfected 293T cells; assay type: cell-based; conditions: for inhibition at 50 µM / inhibition at 100 µM: HEK-293T; for IC50: 1 hour treatment
T3 construct: plasmid expressing the catalytic DHR2 domain of mouse or human Dock5; expressed in transfected cells; host or cells: 293T cells
Method: (§3) Compounds E73, E88 and E78 were tested for their inhibiting effect of the activation of Rac by mouse Dock5 of and for certain human Dock5 according to a screening test using a pull down assay as represented in Figure 1.
Methodology (Figure 1): cells 293T seeded onto 100 mm diameter plates in a DMEM culture medium containing 10% serum in an incubator in 5.5% CO2 humidified atmosphere at 37°C. When they reach the density of 5x10^6 cells per plate, cells are transfected with 8 µg of plasmid expressing the catalytic DHR2 domain of mouse or human Dock5 in order to activate endogenous GTPase Rac. After 24 hours, the cells are lifted using trypsin and are seeded 10^6 per well in 6-well plates of 35 mms in diameter. The following day, the cells are put in contact during one hour with the compound, in a mother solution at 20 mM into 100% DMSO, to a test concentration of 100 µM into 0.5% DMSO in the DMEM medium containing 0.1% of BSA. The basal activation of Rac by Dock5 is measured from the cells treated with 0.5% DMSO. After treatment, the cells are observed under the optical microscope to make sure of the absence of any toxic effect of the compound. If cell suffering is detected, the test is invalidated and the compound is retested at a lower dosage. The cells are then lysed in 100 µl of the pull down buffer (10% glycerol, 50 mm Tris pH 7.4, 100 mM NaCl, 1% IGEPAL® CA-630 (SIGMA I3021), 2 mM MgCl2 supplemented with proteases inhibitors) and the lysate is incubated during one hour with 20 µg of sepharose beads coupled with the fusion protein GST-PAK-CRIB, which binds specifically the activated form of GTPase Rac, which is bound to GTP. After centrifugation and washings, the proteins associated with the beads, including active Rac GTPase, are denatured and loaded on an SDS PAGE gel. […] For each compound tested, the level of active Rac GTPase is quantified using the Image J software and is normalized to the concentration of total protein in the whole cell lysate. The efficiency of the molecule is defined by the level of active Rac after treatment compared to the level of active Rac in the cells treated with DMSO (control). An activity is considered as inhibitory if the level of Rac activation decreases by at least 10%, 20%, in particular at least 30%, 40%, and preferably at least 50% compared to the control treated with DMSO (Table 1).
The same approach was used to test the potency of molecules of the 48ED family, on the activity of human Dock5 DHR2 (Table 2). Table 2: Inhibitory activity of the compounds of the 48ED family on human Dock5 activity.

[4] = test system: ovariectomized mice; assay: Bone dynamics parameters in ovariectomized mice; assay type: in vivo, mouse; conditions: OVX mice
Method: The ovariectomized mouse was used as an in vivo model of pathological bone loss. […] Each group contained ten female C57BL/6J mice that were fourteen weeks of age at the beginning of in-life phase of the study. At the beginning of the in-life phase (at study day 0), mice were weighed and their surgical ovariectomy (OVX) and control (SHAM) operations were performed under analgesia and anaesthesia. […] was injected intra peritoneally (i.p.) to OVX animals, 20 mg/kg once (q.d., dose 1) or twice (b.i.d., dose 2) daily for 25 days, in a vehicle solution containing 0.485% carboxymethylcellulose (CMC) and 3% Tween 80. Control mice received the same volume of vehicle. The effects of treatment with reference compound zoledronate (100 μg/kg, subcutaneously, twice a week.) were studied by comparing OVX mice treated with zoledronate and vehicle with OVX control mice treated with vehicle. At study days 21 and 26, bone was labelled with subcutaneous injections of oxytetracycline and calcein green, respectively, in order to enable the analysis of optional dynamic parameters in bone histomorphometry. Blood for serum samples were harvested from saphenous vein at days -1, 13 and 27 of the study for bone dynamics marker dosage.

[5] = cited from earlier work
[6] = target: T4, mouse Dock5 (Mus musculus, UniProt B2RY04); assay: Pull down assay of Rac activation by mouse Dock5 DHR2 in transfected 293T cells; assay type: cell-based
T4 construct: plasmid expressing the catalytic DHR2 domain of mouse or human Dock5; expressed in transfected cells; host or cells: 293T cells
Method: as §3
Methodology (Figure 1): cells 293T seeded onto 100 mm diameter plates in a DMEM culture medium containing 10% serum in an incubator in 5.5% CO2 humidified atmosphere at 37°C. When they reach the density of 5x10^6 cells per plate, cells are transfected with 8 µg of plasmid expressing the catalytic DHR2 domain of mouse or human Dock5 in order to activate endogenous GTPase Rac. After 24 hours, the cells are lifted using trypsin and are seeded 10^6 per well in 6-well plates of 35 mms in diameter. The following day, the cells are put in contact during one hour with the compound, in a mother solution at 20 mM into 100% DMSO, to a test concentration of 100 µM into 0.5% DMSO in the DMEM medium containing 0.1% of BSA. The basal activation of Rac by Dock5 is measured from the cells treated with 0.5% DMSO. […] If cell suffering is detected, the test is invalidated and the compound is retested at a lower dosage. […] For each compound tested, the level of active Rac GTPase is quantified using the Image J software and is normalized to the concentration of total protein in the whole cell lysate. […]

[7] = Table 3, human Dock5, test concentration 100 µM, 1 hour, replicate values, 100 µM
[8] = 20 mg/kg, i.p., b.i.d., first two weeks of in-life phase, vs OVX vehicle
[9] = 20 mg/kg, i.p., q.d. and b.i.d., study day 28, vs OVX vehicle
[10] = 20 mg/kg, i.p., q.d. and b.i.d, study day 28
[11] = zoledronate 100 µg/kg, subcutaneously, twice a week, study day 28, vs OVX vehicle

T3 sequence (Q9H7D0 1231-1642 limits assumed): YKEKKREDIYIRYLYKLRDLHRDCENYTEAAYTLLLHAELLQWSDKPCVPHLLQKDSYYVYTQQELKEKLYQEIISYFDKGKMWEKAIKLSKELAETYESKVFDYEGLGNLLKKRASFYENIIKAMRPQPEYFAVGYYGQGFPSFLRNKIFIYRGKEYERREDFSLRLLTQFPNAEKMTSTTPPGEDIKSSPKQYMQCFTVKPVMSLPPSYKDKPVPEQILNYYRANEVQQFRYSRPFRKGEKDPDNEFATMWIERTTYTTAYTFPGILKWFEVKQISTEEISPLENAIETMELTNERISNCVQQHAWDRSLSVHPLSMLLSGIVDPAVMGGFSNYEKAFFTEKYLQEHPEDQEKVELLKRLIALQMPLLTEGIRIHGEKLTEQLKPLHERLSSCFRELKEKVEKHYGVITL
T1 sequence (Q9H7D0 1231-1642 limits assumed): as above
T4 sequence (B2RY04 1231-1642 limits assumed): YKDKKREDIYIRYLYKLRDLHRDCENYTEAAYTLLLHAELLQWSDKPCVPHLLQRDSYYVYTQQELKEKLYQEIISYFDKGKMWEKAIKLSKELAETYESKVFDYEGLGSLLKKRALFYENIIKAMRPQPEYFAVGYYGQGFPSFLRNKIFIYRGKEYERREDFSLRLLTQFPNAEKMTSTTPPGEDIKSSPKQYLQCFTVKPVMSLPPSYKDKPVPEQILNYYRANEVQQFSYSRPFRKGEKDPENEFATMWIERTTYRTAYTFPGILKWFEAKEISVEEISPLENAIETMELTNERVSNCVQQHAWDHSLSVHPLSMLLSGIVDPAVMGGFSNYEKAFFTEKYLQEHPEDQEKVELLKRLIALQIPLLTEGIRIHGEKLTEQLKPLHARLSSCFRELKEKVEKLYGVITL

**Q.** Which results are given for `O=S1(=O)N(c2ccccc2)C[C@H](O)[C@]12CCN(Cc1ccc(Cl)c(Cl)c1)C2` (racemic) [E202, rac-(4S,5R)-7-(3,4-dichlorobenzyl)-4-hydroxy-2-phenyl-1-thia-2,7-diazaspiro[4.4]nonane 1,1-dioxide]?
**A.** effect on the nucleotide exchange reaction of Rac1 catalyzed by Dock5 [1]: inhibit Dock 5; effect on the nucleotide exchange reaction of Rac1 catalyzed by TRIO [2]: not TRIO; inhibition at 50 µM ([3]; Table 3, human Dock5, at 50µM): 95%; Inhibition ([3]; Table 3, human Dock5, at 50µM): 90%; IC50 ([3]; human Dock5): 29 µM

**Q.** With `O=S1(=O)N(c2ccccc2)C[C@H](O)[C@]12CCN(Cc1ccc(Cl)cc1)C2` (racemic) [E197, rac-(4S,5R)-7-(4-chlorobenzyl)-4-hydroxy-2-phenyl-1-thia-2,7-diazaspiro[4.4]nonane 1,1-dioxide] as the compound, how does the “effect on the nucleotide exchange reaction of Rac1 catalyzed by Dock5” value [1] read?
**A.** inhibit Dock 5

**Q.** What about the “effect on the nucleotide exchange reaction of Rac1 catalyzed by TRIO” value [2] of the same compound?
**A.** not TRIO

**Q.** And the inhibition at 50 µM ([3]; Table 3, human Dock5, at 50µM)?
**A.** 80%

**Q.** What about the Inhibition [3, 7] of the same compound?
**A.** 55% and 90%

**Q.** And the IC50 ([3]; human Dock5)?
**A.** 36 µM

**Q.** And the “trabecular separation (Tb.Sp)” value ([4]; 20 mg/kg, i.p., b.i.d., bone histomorphometry, study day 28, vs OVX vehicle)?
**A.** decreased

**Q.** And the “relative change in serum PINP levels” value ([4]; 20 mg/kg, i.p., b.i.d., entire in-life phase, vs OVX vehicle)?
**A.** decreased

**Q.** What about the “relative change in serum CTX-I levels” value [4, 8] of the same compound?
**A.** decreased

**Q.** And the “relative change in serum PINP levels” value [4, 8]?
**A.** decreased

**Q.** And the “trabecular bone volume fraction (BV/TV) in femoral and tibial metaphyses” value ([4]; 20 mg/kg, i.p., b.i.d., study day 28, vs OVX vehicle)?
**A.** increased

**Q.** What about the “trabecular number (Tb.N) in tibial metaphysis” value ([4]; 20 mg/kg, i.p., b.i.d., µCT, study day 28, vs OVX vehicle) of the same compound?
**A.** increased

**Q.** And the “serum levels of bone turnover biomarker osteoclacin” value ([4]; 20 mg/kg, i.p., q.d. and b.i.d., entire in-life phase)?
**A.** did not decreased

**Q.** What about the “cortical bone specific surface (BS/BV) in tibial diaphysis” value [4, 9] of the same compound?
**A.** decreased

**Q.** And the “cortical thickness (Ct.Th) in tibial diaphysis” value [4, 9]?
**A.** increased

**Q.** And the “mineral apposition rate (MAR) in trabecular bone in femoral metaphysis” value [4, 10]?
**A.** did not decreased

**Q.** And the “mineralizing surface per bone surface (MS/BS) in trabecular bone in femoral metaphysis” value [4, 10]?
**A.** did not decreased

**Q.** What about the body weight ([4]; in-life phase (day 0 to day 28)) of the same compound?
**A.** did not affect body weight

**Q.** What does the source list for `O=S(=O)(Nc1cc(Cl)cc(Cl)c1)c1ccccc1` [C21, N-(3,5-dichlorophenyl)-benzenesulfonamide]?
**A.** bone formation ([5]; mice treated daily along 4 weeks): Bone formation is maintained; histological observation of all tissues ([5]; mice): did not reveal any anomaly; development of bone metastases ([5]; mouse): reduces the development of bone metastases; bone resorption ([5]; mouse, postmenopausal osteoporosis, inflammatory and metastasis-induced bone loss models, intravenous or intraperitoneal administration): inhibits effectively the bone resorption

**Q.** What does the source list for `O=P(O)(O)C(O)(Cn1ccnc1)P(=O)(O)O` [Zoledronate, reference compound]?
**A.** relative change in serum osteoclacin levels ([4]; zoledronate 100 µg/kg, subcutaneously, twice a week, in-life phase, vs OVX vehicle): decreased; mineral apposition rate (MAR) in trabecular bone in femoral metaphysis [4, 11]: decreased; mineralizing surface per bone surface (MS/BS) in trabecular bone in femoral metaphysis [4, 11]: decreased

**Q.** Which inhibition at 100 µM ([3]; Table 1a, test concentration 100 µM, 1 hour, replicate values, Negative = Rac activation does not decrease, read-out: Inhibition Dock5 (%) Human) does the source give for `O=S1(=O)N(c2ccccc2)C[C@H](O)[C@]12CCN(Cc1cccc(Cl)c1)C2` [E73] here?
**A.** 70%

**Q.** And the “Inhibition Dock5 (%) Human” value ([3]; Table 1a, test concentration 100 µM, 1 hour, replicate values, Negative = Rac activation does not decrease, 100 µM)?
**A.** 60% and 55%

**Q.** And the Inhibition ([3]; Table 2, human Dock5 DHR2, test concentration 100 µM, 1 hour, replicate values, Negative = Rac activation does not decrease, 100 µM)?
**A.** 55% and 95% (3×) and 50% and 90% (2×)

**Q.** And the IC50 ([3]; human Dock5)?
**A.** 36 µM

**Q.** And the inhibition at 100 µM ([6]; HEK-293T, 100 µM, species of Dock5 not given)?
**A.** ~95%

**Q.** What about the IC50 ([6]; mouse DHR2 of Dock5) of the same compound?
**A.** 17 µM

**Q.** With `O=S1(=O)N(c2cccc(Cl)c2)C[C@@H](O)[C@]12CCN(Cc1ccccc1)C2` [E236] as the compound, how does the inhibition at 50 µM ([3]; Table 3, human Dock5, at 50µM) read?
**A.** 20%

**Q.** What about the inhibition at 100 µM ([3]; Table 3, human Dock5, test concentration 100 µM, 1 hour, replicate values, read-out: Inhibition) of the same compound?
**A.** 70%

**Q.** For `CC(=O)N1CC[C@@]2(C1)[C@@H](O)CN(c1ccccc1)S2(=O)=O` [E133], which inhibition at 100 µM ([3]; Table 2, human Dock5 DHR2, test concentration 100 µM, 1 hour, replicate values, Negative = Rac activation does not decrease, read-out: Inhibition) is on record?
**A.** 5%

**Q.** With `CN1C[C@@H](O)[C@]2(CCN(Cc3ccccc3)C2)S1(=O)=O` [E121] as the compound, how does the Inhibition ([3]; Table 2, human Dock5 DHR2, test concentration 100 µM, 1 hour, replicate values, Negative = Rac activation does not decrease) read?
**A.** Negative

**Q.** With `N#Cc1cccc(CN2CC[C@@]3(C2)[C@@H](O)CN(c2ccccc2)S3(=O)=O)c1` [E214] as the compound, how does the Inhibition [3, 7] read?
**A.** 90% and 50%
